Experiments:
HEK293 cells = experiment: Signaling in HEK293 cells (immunoblot); assay type: cell-based, human; settings: for inhibition of imidazole propionate-induced phosphorylation of p62 and S6K1: 10 μM, 30 min pretreatment, ImP 100 μM 1 h
Method: (§1) Snap-frozen liver and harvested cells were lysed in buffer containing 50 mM Tris-HCl (pH 7.4), 150 mM NaCl, 1 mM EDTA, 1 mM Na3VO4, 20 mM NaF, 10 mM glycerophosphate, 1 mM PMSF, 10% glycerol, 1% Triton X-100 and protease inhibitor cocktail. For immunoprecipitation, the cell lysates were obtained in 0.3% CHAPS-containing lysis buffer, sonicated and centrifuged at 20,000 g for 15 min at 4° C., and the supernatant was incubated with 20 μl of anti-FLAG beads (Sigma) at 4° C. for 4 h under gentle agitation.
HEK293 cells (ATCC CRL-1573) were grown and maintained in high-glucose (4.5 g/l glucose) DMEM with 10% (v/v) FBS. […] 24 h after transfection (with plasmids or siRNA as indicated), HEK293 cells cultured in poly-L-lysine-coated 60 mm dishes were rinsed twice with DMEM without FBS and incubated in serum-free DMEM for 18 h. HEK293 cells were then washed once with EBSS and incubated in EBSS for 1 h.

p38α/p38β = settings: cited from earlier work
p38γ/p38δ = settings: cited from earlier work
primary hepatocytes = experiment: Insulin signaling in primary hepatocytes (immunoblot); assay type: cell-based, mouse; settings: rapamycin 20 nM, Torin 1 50 nM, ImP 100 μM
Method: as §1
Primary hepatocytes were isolated from C57BL/6J mice by digesting liver with perfusion of collagenase type IV as described previously. After perfusion, 16×10^5 cells were plated on collagen-coated 60 mm dishes in Dulbecco's modified Eagle's medium (DMEM)/F12 supplemented with fetal bovine serum (FBS), penicillin/streptomycin and 100 nM dexamethasone. After 4 h, the medium was changed to DMEM/F12 containing penicillin/streptomycin.

[1] = target: recombinant p62 (Abcam, ab95320), Q13501

For “insulin: insulin from Sigma-Aldrich, used at 5 nM”, the “mTORC1 activation, as measured by S6K1 phosphorylation” value (HEK293 cells; HEK293, insulin 5 nM, absence of amino acids or imidazole propionate) was “did not lead to mTORC1 activation”.

In the case of NC1(c2ccc(-c3nc4ccn5c(=O)[nH]nc5c4cc3-c3ccccc3)cc2)CCC1 [MK2206, reference compound], the “effect on imidazole propionate-induced Akt activation” value (HEK293 cells) is reported as “efficiently blocked”, the “effect on imidazole propionate-induced S6K1 phosphorylation” value (HEK293 cells; absence of amino acids) is reported as “did not affect” and the “effect on imidazole propionate-induced S6K1 phosphorylation” value (HEK293 cells; presence of amino acids) is reported as “inhibition”.

In the case of Cc1ccc(-n2nc(C(C)(C)C)cc2NC(=O)Nc2ccc(OCCN3CCOCC3)c3ccccc23)cc1 [BIRB796, 1-(5-tert-butyl-2-p-tolyl-2H-pyrazol-3-yl)-3-[4-(2-morpholin-4-yl-ethoxy)naphthalen-1-yl]urea], the “inhibition of imidazole propionate-induced phosphorylation of p62 and S6K1” value (HEK293 cells; amino acid-deprived HEK293) is given as “inhibited”, the “inhibition of p38α/p38β” value (p38α/p38β) is given as “inhibits the entire p38 subfamily” and the “inhibition of p38γ/p38δ” value (p38γ/p38δ) is given as “inhibits the entire p38 subfamily”.

For CCC(=O)N1CCN(c2ccc(-n3c(=O)ccc4cnc5ccc(-c6cnc7ccccc7c6)cc5c43)cc2C(F)(F)F)CC1 [torin 1, 1-[4-[4-(1-oxopropyl)-1-piperazinyl]-3-(trifluoromethyl)phenyl]-9-(3-quinolinyl)-benzo[h]-1,6-naphthyridin-2(1H)-one, reference compound], the “effect on imidazole propionate-induced S6K1 phosphorylation” value (primary hepatocytes) was “reversed” and the “inhibition of imidazole propionate-induced reduction of IRS” value (primary hepatocytes) was “inhibited”.

With N[C@@H](Cc1c[nH]cn1)C(=O)O [histidine, reference compound] the “phosphorylation of p62 or S6K1” value (HEK293 cells; amino acid-deprived HEK293, 100 μM for 1 h) was “neither”.

In the case of CC(C)C[C@H](N)C(=O)O [Leucine, reference compound], the S6K1 phosphorylation (HEK293 cells; HEK293, after only 15 min, transient) is reported as “increased” and the “time to mTORC1 activation” value (HEK293 cells; absence of amino acids) is reported as ≤ 15 min.

In the case of Oc1ccc(-c2nc(-c3ccncc3)c(-c3ccc(F)cc3)[nH]2)cc1 [SB202190], the “inhibition of imidazole propionate-induced phosphorylation of p62 and S6K1” value (HEK293 cells; amino acid-deprived HEK293) is given as “not” and the “inhibition of p38α/p38β” value (p38α/p38β) is given as “inhibited”.

B1: recombinant p38γ (Abcam, ab125651) (protein)
chain: MSSPPPARSGFYRQEVTKTAWEVRAVYRDLQPVGSGAYGAVCSAVDGRTGAKVAIKKLYRPFQSELFAKRAYRELRLLKHMRHENVIGLLDVFTPDETLDDFTDFYLVMPFMGTDLGKLMKHEKLGEDRIQFLVYQMLKGLRYIHAAGIIHRDLKPGNLAVNEDCELKILDFGLARQADSEMTGYVVTRWYRAPEVILNWMRYTQTVDIWSVGCIMAEMITGKTLFKGSDHLDQLKEIMKVTGTPPAEFVQRLQSDEAKNYMKGLPELEKKDFASILTNASPLAVNLLEKMLVLDAEQRVTAGEALAHPYFESLHDTEDEPQVQKYDDSFDDVDRTLDEWKRVTYKEVLSFKPPRQLGARVSKETPL
With B1 the “p62 phosphorylation (T269 and S272), in vitro kinase assay” value [1] was “p62 phosphorylation, at T269 and S272, was induced by p38γ in the presence of 50 µM ATP, which was further increased with 200 µM ATP”.

Reference: patent US20190369122A1, “METABOLIC DISORDERS” (priority 2016, published 2019)
